The target of one assay is Galectin-1 (Homo sapiens, UniProt P09382). Briefly: Fluorescence anisotropy assay, affinity for galectin-1. The format is binding. The settings on record: compound as inhibitor of the interaction between galectin and a fluorescein tagged saccharide probe. The procedure: (§1) The affinity of Example 1-43 for galectins were determined by a fluorescence anisotropy assay where the compound was used as an inhibitor of the interaction between galectin and a fluorescein tagged saccharide probe as described Sörme, P., Kahl-Knutsson, B., Huflejt, M., Nilsson, U. J., and Leffler H. (2004) Fluorescence polarization as an analytical tool to evaluate galectin-ligand interactions. Anal. Biochem. 334: 36-47, (Sörme et al., 2004) and Monovalent interactions of Galectin-1 By Salomonsson, Emma; Larumbe, Amaia; Tejler, Johan; Tullberg, Erik; Rydberg, Hanna; Sundin, Anders; Khabut, Areej; Frejd, Torbjomn; Lobsanov, Yuri D.; Rini, James M.; et al, From Biochemistry (2010), 49(44), 9518-9532, (Salomonsson et al., 2010).

The next assay concerns the target Galectin-3 (Homo sapiens, UniProt P17931). The experiment in a line: Fluorescence anisotropy assay, affinity for galectin-3. The format is binding. The settings on record: compound as inhibitor of the interaction between galectin and a fluorescein tagged saccharide probe. The procedure: as §1
For orientation: Fluorescence polarisation rises when a labelled molecule tumbles more slowly, as on binding a larger partner.

SMILES strings stand for the structures. pKd: −log10 of the molar value.

Usually pKd stands for the negative decadic logarithm of the Kd, by convention in mol/L.

Chain of Galectin-3 (P17931 whole entry): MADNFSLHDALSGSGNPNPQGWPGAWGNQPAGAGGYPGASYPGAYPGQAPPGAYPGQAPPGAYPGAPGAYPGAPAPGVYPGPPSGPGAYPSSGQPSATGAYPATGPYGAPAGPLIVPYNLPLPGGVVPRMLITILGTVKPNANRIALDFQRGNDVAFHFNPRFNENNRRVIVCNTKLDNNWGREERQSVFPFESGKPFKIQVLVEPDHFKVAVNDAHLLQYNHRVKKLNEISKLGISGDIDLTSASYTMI
Chain of Galectin-1 (P09382 whole entry): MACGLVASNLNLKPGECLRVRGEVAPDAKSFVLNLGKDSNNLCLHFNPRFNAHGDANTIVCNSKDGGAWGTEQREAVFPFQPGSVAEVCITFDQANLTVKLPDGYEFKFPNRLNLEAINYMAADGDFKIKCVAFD

`COC1C(n2cc(-n3ccc(Cl)n3)nn2)[C@@H](O)C(CO)O[C@@H]1Sc1cc(Br)cnc1C(=O)N(CC1CCC1)C(C)C` (stereo partly drawn) [Example 26, 5-Bromo-2-[N,N-(cyclobutylmethyl)isopropylcarbamoyl]pyridin-3-yl 3-[4-(3-chloro-1H-1,2-pyrazol-1-yl)-1H-1,2,3-triazol-1-yl]-3-deoxy-2-O-methyl-1-thio-α-D-galactopyranoside]: the pKd on Galectin-1 was 6.80; at Galectin-3, 6.96.
Take `CCN(C(=O)c1ncc(Br)cc1S[C@H]1OC(CO)[C@H](O)C(n2cc(-n3ccc(Cl)n3)nn2)C1OC)C(C)C` (stereo partly drawn) [Example 19, 5-Bromo-2-(N,N-ethylisopropylcarbamoyl)pyridin-3-yl 3-[4-(3-chloro-1H-1,2-pyrazol-1-yl)-1H-1,2,3-triazol-1-yl]-3-deoxy-2-O-methyl-1-thio-α-D-galactopyranoside]: the negative-log Kd (pKd) at Galectin-1 is 6.96; at Galectin-3, 7.04.
Regarding `COC1C(n2cc(-n3cc(F)cn3)nn2)[C@@H](O)C(CO)O[C@@H]1Sc1cc(Br)cnc1C#N` (stereo partly drawn) [Example 13, 5-Bromo-2-cyanopyridin-3-yl 3-deoxy-3-[4-(4-fluoro-1H-1,2-pyrazol-1-yl)-1H-1,2,3-triazol-1-yl]-2-O-methyl-1-thio-α-D-galactopyranoside], the pKd on Galectin-1 was 6.74; at Galectin-3, 5.77.
The like results for `COC1[C@@H](Sc2cc(Br)cnc2C(=O)NC2CCC2)OC(CO)[C@H](O)[C@@H]1n1cc(-n2ccc(Cl)n2)nn1` (stereo partly drawn) [Example 40, 5-Bromo-2-(N-cyclobutylcarbamoyl)pyridin-3-yl 3-[4-(3-chloro-1H-1,2-pyrazol-1-yl)-1H-1,2,3-triazol-1-yl]-3-deoxy-2-O-methyl-1-thio-α-D-galactopyranoside] were, in that order, 7.09 and 6.80.
The like results for `COC1C(n2cc(-n3ccc(Cl)n3)nn2)[C@@H](O)C(CO)O[C@@H]1Sc1cc(Br)cnc1C(=O)N(CC1CC1)CC1CC1` (stereo partly drawn) [Example 24, 5-Bromo-2-[N,N-bis(cyclopropylmethyl)carbamoyl]pyridin-3-yl 3-[4-(3-chloro-1H-1,2-pyrazol-1-yl)-1H-1,2,3-triazol-1-yl]-3-deoxy-2-O-methyl-1-thio-α-D-galactopyranoside] were, in that order, 6.92 and 7.08.
The like results for `CCN(CC(F)(F)F)C(=O)c1ncc(Br)cc1S[C@H]1OC(CO)[C@H](O)C(n2cc(-n3ccc(Cl)n3)nn2)C1OC` (stereo partly drawn) [Example 29, 5-Bromo-2-[N,N-ethyl-(2,2,2-trifluoroethyl)carbamoyl]pyridin-3-yl 3-[4-(3-chloro-1H-1,2-pyrazol-1-yl)-1H-1,2,3-triazol-1-yl]-3-deoxy-2-O-methyl-1-thio-α-D-galactopyranoside] were, in that order, 7.00 and 7.22.
For `COC1C(n2cc(-n3ccc(Cl)n3)nn2)[C@@H](O)C(CO)O[C@@H]1Sc1cnc(C(F)(F)F)c(Br)c1` (stereo partly drawn) [Example 9, 3-Bromo-2-(trifluoromethyl)pyridin-5-yl 3-[4-(3-chloro-1H-1,2-pyrazol-1-yl)-1H-1,2,3-triazol-1-yl]-3-deoxy-2-O-methyl-1-thio-α-D-galactopyranoside], the results for the pKd at Galectin-1 and at Galectin-3 were 6.68 and 6.41, respectively.
In the case of `COC1C(n2cc(-n3nccc3C)nn2)[C@@H](O)C(CO)O[C@@H]1Sc1cc(Br)cnc1C#N` (stereo partly drawn) [Example 15, 5-Bromo-2-cyanopyridin-3-yl 3-deoxy-3-[4-(5-methyl-1H-1,2-pyrazol-1-yl)-1H-1,2,3-triazol-1-yl]-2-O-methyl-1-thio-α-D-galactopyranoside], the pKd at Galectin-1 was 6.05; on Galectin-3, 5.37.
`COC1C(n2cc(-n3ccc(Cl)n3)nn2)[C@@H](O)C(CO)O[C@@H]1Sc1cc(Br)cnc1C(=O)N(C)C` (stereo partly drawn) [Example 10, 5-Bromo-2-(N,N-dimethylcarbamoyl)pyridin-3-yl 3-[4-(3-chloro-1H-1,2-pyrazol-1-yl)-1H-1,2,3-triazol-1-yl]-3-deoxy-2-O-methyl-1-thio-α-D-galactopyranoside]: the negative-log Kd (pKd) on Galectin-1 is 7.27; at Galectin-3, 7.14.
In the case of `COC1C(n2cc(-n3ccc(C)n3)nn2)[C@@H](O)C(CO)O[C@@H]1Sc1cc(Br)cnc1C#N` (stereo partly drawn) [Example 14, 5-Bromo-2-cyanopyridin-3-yl 3-deoxy-3-[4-(3-methyl-1H-1,2-pyrazol-1-yl)-1H-1,2,3-triazol-1-yl]-2-O-methyl-1-thio-α-D-galactopyranoside], the negative logarithm of the Kd (pKd) on Galectin-1 is 6.74; at Galectin-3, 5.85.
`COC1C(n2cc(-n3ccc(Cl)n3)nn2)[C@@H](O)C(CO)O[C@@H]1Sc1cc(Br)cnc1C(=O)N(CC1CC1)C(C)C` (stereo partly drawn) [Example 31, 5-Bromo-2-[N,N-(cyclopropylmethyl)isopropylcarbamoyl]pyridin-3-yl 3-[4-(3-chloro-1H-1,2-pyrazol-1-yl)-1H-1,2,3-triazol-1-yl]-3-deoxy-2-O-methyl-1-thio-α-D-galactopyranoside]: the pKd was 7.14 at Galectin-1 and 7.22 on Galectin-3.
Take `COC1C(n2cc(-n3ccc(Cl)n3)nn2)[C@@H](O)C(CO)O[C@@H]1Sc1cc(Br)cnc1C(=O)N(CC(C)C)C(C)C` (stereo partly drawn) [Example 32, 5-Bromo-2-(N,N-isobutylisopropylcarbamoyl)pyridin-3-yl 3-[4-(3-chloro-1H-1,2-pyrazol-1-yl)-1H-1,2,3-triazol-1-yl]-3-deoxy-2-O-methyl-1-thio-α-D-galactopyranoside]: the pKd on Galectin-1 is 6.96; on Galectin-3, 7.20.
Regarding `COC1[C@@H](Sc2cc(Br)cnc2C(=O)NCCF)OC(CO)[C@H](O)[C@@H]1n1cc(-n2ccc(Cl)n2)nn1` (stereo partly drawn) [Example 38, 5-Bromo-2-[N-(2-fluoroethyl)carbamoyl]pyridin-3-yl 3-[4-(3-chloro-1H-1,2-pyrazol-1-yl)-1H-1,2,3-triazol-1-yl]-3-deoxy-2-O-methyl-1-thio-α-D-galactopyranoside], the figures for the pKd at Galectin-1 and on Galectin-3 were 7.10 and 6.74, respectively.
`COC1C(n2cc(-n3cc(F)c(Cl)n3)nn2)[C@@H](O)C(CO)O[C@@H]1Sc1cc(Br)cnc1C#N` (stereo partly drawn) [Example 43, 5-Bromo-2-cyanopyridin-3-yl 3-[4-(3-chloro-4-fluoro-1H-1,2-pyrazol-1-yl)-1H-1,2,3-triazol-1-yl]-3-deoxy-2-O-methyl-1-thio-α-D-galactopyranoside]: the pKd on Galectin-1 is 6.57; on Galectin-3, 6.85.
The like results for `COC1C(n2cc(-n3ccc(Cl)n3)nn2)[C@@H](O)C(CO)O[C@@H]1Sc1cc(Br)cnc1C#N` (stereo partly drawn) [Example 3, 5-Bromo-2-cyanopyridin-3-yl 3-[4-(3-chloro-1H-1,2-pyrazol-1-yl)-1H-1,2,3-triazol-1-yl]-3-deoxy-2-O-methyl-1-thio-α-D-galactopyranoside] were, in that order, 6.89 and 6.92.
In the case of `COC1C(n2cc(-n3ccc(Cl)n3)nn2)[C@@H](O)C(CO)O[C@@H]1Sc1cnc(C(F)(F)F)c(Cl)c1` (stereo partly drawn) [Example 8, 3-Chloro-2-(trifluoromethyl)pyridin-5-yl 3-[4-(3-chloro-1H-1,2-pyrazol-1-yl)-1H-1,2,3-triazol-1-yl]-3-deoxy-2-O-methyl-1-thio-α-D-galactopyranoside], the values for the pKd on Galectin-1 and at Galectin-3 were 6.44 and 6.27, respectively.
Take `CCNC(=O)c1ncc(Br)cc1S[C@H]1OC(CO)[C@H](O)[C@H](n2cc(-n3ccc(Cl)n3)nn2)C1OC` (stereo partly drawn) [Example 35, 5-Bromo-2-(N-ethylcarbamoyl)pyridin-3-yl 3-[4-(3-chloro-1H-1,2-pyrazol-1-yl)-1H-1,2,3-triazol-1-yl]-3-deoxy-2-O-methyl-1-thio-α-D-galactopyranoside]: the pKd on Galectin-1 is 7.20; at Galectin-3, 6.85.
The like results for `COC1C(n2cc(-n3ccc(Cl)n3)nn2)[C@@H](O)C(CO)O[C@@H]1Sc1cc(Br)ccc1C#N` (stereo partly drawn) [Example 2, 5-Bromo-2-cyanophenyl 3-[4-(3-chloro-1H-1,2-pyrazol-1-yl)-1H-1,2,3-triazol-1-yl]-3-deoxy-2-O-methyl-1-thio-α-D-galactopyranoside] were, in that order, 7.07 and 6.89.
For the compound `OCC1O[C@H](Sc2cncc(Cl)c2)C(O)C(n2cc(-n3ccc(F)n3)nn2)[C@H]1O` (stereo partly drawn) [Example 4, 5-Chloropyridin-3-yl 3-deoxy-3-[4-(3-fluoro-1H-1,2-pyrazol-1-yl)-1H-1,2,3-triazol-1-yl]-1-thio-α-D-galactopyranoside], the pKd on Galectin-1 is 5.77; on Galectin-3 it was 6.44.
The like results for `COC1C(n2cc(-n3nc(Cl)cc3C)nn2)[C@@H](O)C(CO)O[C@@H]1Sc1cc(Br)cnc1C#N` (stereo partly drawn) [Example 16, 5-Bromo-2-cyanopyridin-3-yl 3-[4-(3-chloro-5-methyl-1H-1,2-pyrazol-1-yl)-1H-1,2,3-triazol-1-yl]-3-deoxy-2-O-methyl-1-thio-α-D-galactopyranoside] were, in that order, 6.46 and 6.40.
Take `CCN(CC(C)(C)F)C(=O)c1ncc(Br)cc1S[C@H]1OC(CO)[C@H](O)C(n2cc(-n3ccc(Cl)n3)nn2)C1OC` (stereo partly drawn) [Example 30, 5-Bromo-2-[N,N-ethyl(2-fluoro-2-methylpropyl)carbamoyl]pyridin-3-yl 3-[4-(3-chloro-1H-1,2-pyrazol-1-yl)-1H-1,2,3-triazol-1-yl]-3-deoxy-2-O-methyl-1-thio-α-D-galactopyranoside]: the pKd on Galectin-1 was 6.85; at Galectin-3, 7.21.

Values taken from patent publication US20240287122A1, “NOVEL GALACTOSIDE INHIBITOR OF GALECTINS” (GALECTO BIOTECH AB, priority 2020, published 2024).
